The record followed here is publication PMC10054240, “New Inhibitors of Respiratory Syncytial Virus (RSV) Replication Based on Monoterpene-Substituted Arylcoumarins” (Molecules, 2023).

The subject of data set [1] is RSV A strain A2. Put plainly: Antiviral activity against RSV A strain A2 in HEp-2 cells (ELISA virus titer). The format is cell-based, respiratory syncytial virus. Background: In an ELISA, binding on a coated surface is turned into a signal by an enzyme label.
Data set [2] has as its system RSV A2 virus. Put plainly: Time-of-addition assay. It is filed as cell-based, respiratory syncytial virus. The following applies: 300 μg/mL, RSV A2, titer by ELISA. The method, then:
Compounds 14e and 14b at a concentration of 300 μg/mL were added at different time intervals before, after, or during virus inoculation (Figure 2 and Figure 3). The time of compound addition was counted off from Point 0, i.e., the moment of virus entry into the cell. RSV A2 virus was added to cells at a time conventionally designated as […]; then, cells were kept at a temperature of 40 °C for 1 h. Next, at Point 0, unbound virus was washed off, fresh medium containing compounds at the same concentration was added, and the cells were transferred to a thermostat at 37 °C where they were incubated for 25 h. After this, medium collected from each well was used to make a series of ten-fold dilutions with fresh cell culture. The cells were incubated for 6 days. The viral titer was measured by ELISA.
Compounds were added at different time points before, after, or simultaneously with the introduction of the virus. The time of addition of the compounds was counted from Point 0, i.e., the time of entry of the virus into the cell. During the period (−1)–0, the cells together with the virus were incubated at 40 °C. All other experiments were carried out at 37 °C. RSV virus A […] was added to the cells at a time that was conventionally designated as […], after which the cells were kept for an hour at a temperature of 40 °C. Then, at Point 0, the virus was unbound. […]

Data set [3] in a line: Cytotoxicity on non-infected HEp-2 cells, MTT assay. It is filed as cell-based. The following applies: human, non-infected HEp-2 cells, CC50 (50% cytotoxic concentration), MTT, 24 h. In general terms: Tetrazolium assays rely on reduction of a dye to a coloured formazan, in cell work by metabolically active cells.
In data set [4] the test system is RSV type B. The data set can be described thus: Inhibition of reproduction of RSV type B. The format is cell-based. The settings on record: human respiratory syncytial virus. The method, then:
The antiviral activity against the respiratory syncytial virus was assessed in a series of 3-fold dilutions of test compounds, starting from ½CC50, which were added to HEp-2 cell culture, at a double concentration, 100 μL per well, followed by addition of 100 μL of the virus in a series of 10-fold dilutions. Cells were incubated at 37 °C and 5% CO2 for 1 h. Then, the virus was washed out, and the compounds were again added at a single concentration and incubated at 37 °C and 5% CO2 for 6 days. For the enzyme-linked immunosorbent assay (ELISA), cell culture was fixed with cold 80% acetone at −20 °C for 15 min, and then washed with phosphate buffered saline containing 0.05% Tween 20. Next, a solution of primary mouse anti-RSV F protein antibodies was added to the culture and incubated at room temperature under continuous stirring for 2 h. Then, cells were again washed with buffer, secondary anti-mouse antibodies were added, and the cells were incubated under continuous stirring for 2 h. […] After 5 min, the reaction was stopped with 0.1 M sulfuric acid, and optical density of the solution was measured at a wavelength of 450 nm. Wells with absorbance values two fold or greater than the cell control were considered to be […]. The virus titer was calculated using the Reed and Muench method. […]

Like-named read-outs stand apart in the source and are kept apart here.

Regarding `CC1(C)C2CC=C(COc3ccc4c(-c5ccccc5)cc(=O)oc4c3)C1C2` (centres unmarked) [Compound 14b], the “SI (selective index)” value in data set [1] worked out at 32.8. The “pIC50 (-lg[IC50])” value in data set [1] (RSV A, from Table 1 values) was determined as 4.75. Further, the EC50 in data set [1] (read-out: EC50 (50% effective concentration)) amounted to 18 ± 0.9 µM. Moreover, the “effect on viral titer depending on time of addition (in words)” value in data set [2] is “reduced the viral titer at all time periods, except for prophylactic use 2 h before virus entry into cells”. In data set [3], it took 591 ± 85.2 µM to reach half-maximal cytotoxicity (CC50 at 24 h).
For `CC1(C)[C@H]2CC=C(CCCOc3ccc4c(-c5ccccc5)cc(=O)oc4c3)[C@@H]1C2` [Compound 14e, 7-(3-((1R,5S)-6,6-Dimethylbicyclo[3.1.1]hept-2-en-2-yl)propoxy)-4-phenyl-2H-chromen-2-one], the “antiviral activity against RSV A (in words)” value in data set [1] (RSV A, HEp-2 cells) is recorded as “inhibiting virus replication at low micromolar concentrations”. In addition, in data set [1] (human respiratory syncytial virus, HEp-2, RSV A, from Table 1 values, read-out: pIC50 (-lg[IC50]) (converted)), the IC50 – broadly, the concentration at which inhibition is half-maximal – was 7.59 µM. The EC50 in data set [1] (human respiratory syncytial virus, HEp-2, read-out: EC50 (50% effective concentration)) came to 7.5 ± 0.4 µM; in data set [4], 3 ± 0.2 µM. The “effect on viral titer depending on time of addition (in words)” value in data set [2] was “reduced the viral titer upon addition at all time periods through 6 h after infection”. In data set [3], the midpoint of cytotoxicity, the CC50 at 24 h, lay at 1440 ± 85.1 µM.
